The subject of this series is A549 cells. The following applies: human.

pIC50: −log10 of the molar value. *1 amine or outer side, *2 acyl side, *3 side chain or, on linkers, in order; H or OH if unused. Where a SMILES comes first, the peptide text is derived from it. Bridges are numbered along the chain shown (N, C = ends). X1 = CC[C@@]1(OC(=O)CCC(=O)NCCOCCOCCOCCn2cc(COc3cc(C[*:1])cc(C[*:2])c3)nn2)C(=O)OCc2c1cc1n(c2=O)Cc2cc3ccccc3nc2-1; X2 = CC[C@@]1(OC(=O)Cn2cc(COc3cc(C[*:1])cc(C[*:2])c3)nn2)C(=O)OCc2c1cc1n(c2=O)Cc2cc3ccccc3nc2-1

A word on the pIC50: it is the negative decadic logarithm of the IC50, by convention in mol/L. The compound `CC[C@H](C)[C@@H]1NC(=O)[C@H](CC(N)=O)NC(=O)[C@@H]2CCCN2C(=O)[C@H](CC(N)=O)NC(=O)[C@H](CC(N)=O)NC(=O)[C@H](C(C)C)NC(=O)[C@H](CCCNC(=N)N)NC(=O)[C@@H]2CSSC[C@H](NC(=O)CNC(=O)[C@@H](N)CO)C(=O)N[C@@H](CSCc3cc(cc(OCc4cn(CC(=O)O[C@]5(CC)C(=O)OCc6c5cc5n(c6=O)Cc6cc7ccccc7nc6-5)nn4)c3)CSC[C@@H](C(N)=O)NC1=O)C(=O)N[C@@H](CO)C(=O)N[C@@H](CC(N)=O)C(=O)N1CCC[C@H]1C(=O)N[C@@H](C)C(=O)N2` [LsIA[2,4]-8] (H-SGCCSNPACRVNNPNIC-NH2; disulfide 3-9; linker 4-17 via X2) showed a pIC50 of 6.67.

As to `CC[C@H](C)[C@@H]1NC(=O)[C@H](CC(N)=O)NC(=O)[C@@H]2CCCN2C(=O)[C@H](CC(N)=O)NC(=O)[C@H](CC(N)=O)NC(=O)[C@H](C(C)C)NC(=O)[C@H](CCCNC(=N)N)NC(=O)[C@@H]2CSSC[C@H](NC(=O)CNC(=O)[C@@H](N)CO)C(=O)N[C@@H](CSCc3cc(cc(OCc4cn(CCOCCOCCOCCNC(=O)CCC(=O)O[C@]5(CC)C(=O)OCc6c5cc5n(c6=O)Cc6cc7ccccc7nc6-5)nn4)c3)CSC[C@@H](C(N)=O)NC1=O)C(=O)N[C@@H](CO)C(=O)N[C@@H](CC(N)=O)C(=O)N1CCC[C@H]1C(=O)N[C@@H](C)C(=O)N2` [LsIA[2,4]-9] (H-SGCCSNPACRVNNPNIC-NH2; disulfide 3-9; linker 4-17 via X1), the pIC50 is 6.47.

The values above are taken from paper PMC11278161 (Marine Drugs, 2024).
